Consider 1 sequence from paper PMC4448987, “A neuroligin-1-derived peptide stimulates phosphorylation of the NMDA receptor NR1 subunit and rescues MK-801-induced decrease in long-term potentiation and memory impairment” (Pharmacology Research & Perspectives, 2015).

Data set [1] relates to hippocampal slices, CA3-CA1 synapse (fEPSP slope). Briefly: LTP in acute hippocampal slices from mice injected s.c. The data set is classed as in vivo, C57BL/6N mice. To be noted: mice injected with neurolide-1 10 mg/kg s.c. 24 h and 1 h before sacrifice plus MK-801 0.1 mg/kg s.c.; slope 25-30 min after HFS vs before; mean ± SEM, n = 6. The procedure: Juvenile C57BL/6N mice of both sexes (postnatal day 16–24; Taconic, Ejby, Denmark) were injected subcutaneously (s.c.) with 10 mg/kg of the neurolide-1 peptide solution (10 mg/mL) and again 23 h later with 10 mg/kg of the neurolide-1 peptide solution (10 mg/mL) and 0.1 mg/kg MK-801 solution (0.025 mg/mL). Mice receiving the injection with the MK-801 solution only or untreated mice served as control groups. The young mice were rapidly and humanely euthanized with a minimum of distress by decapitation at a time point corresponding to 24 h after first injection. Preceding anesthetic was omitted to preserve the tissue free of drug residues and brain slice functions as unaltered as possible when performing the physiological measurements. After decapitation, the brain was removed. […]
Measurements were made in oxygenated aCSF at room temperature (1.1 mL/min). […] The field potential in the stratum radiatum of the CA1 area of the hippocampus was recorded with an extracellular glass microelectrode (4–6 MΩ, filled with aCSF), positioned at least 500 μm away from the stimulation electrode. […]

In the next data set the test system is NX-1β. To be noted: ref Gjorlund et al. [2012]; cited from earlier work. From the text: (§1) We recently investigated the functional role of the NL1 B insert using a peptide, termed neurolide-1, that encompasses the NL1-binding site for NX1, including the B insert.
The conditions of data set [2]: in vivo intra-hippocampal treatment; ref van der Kooij et al. [2014]; cited from earlier work.
From the text: as §1

For a further data set, the system named is hippocampal neurons. To be noted: NX-1β expression-dependent, in contrast to the peptide without the B insert; ref Gjorlund et al. [2012]; cited from earlier work.
From the text: as §1

The subject of the next data set is male Wistar rats. The data set can be described thus: Y maze test (spontaneous alternation). The data set is classed as in vivo, rat. As for the experimental part:
NMDA-mediated effects of Neurolide-1 on spatial working memory performance was assessed by recording spontaneous alternation behavior in a Y maze test performed as described previously (Wegener et al. [2011]), (See Data S1). Initially, adult male Wister rats (420–490 g, n = 6–12; Charles River) were injected s.c., three times at 28, 4, and 2 h before start of the Y maze test. One group received Neurolide-1, saline, and neurolide-1 in this order. Another group received saline, MK-801, and saline in this order. A third group received neurolide-1, MK-801, and neurolide-1 in this order. And control group received saline at all times. In a second setup we tested the effect of neurolide-1 in very young male Wistar rats (4-weeks old) which received a s.c., injection of neurolide-1 or saline 2 h prior to testing them in the Y-maze (n = 11–15). Terminally, rats were rapidly and humanely rendered unconscious by concussive stunning and euthanized by cervical dislocation.
The maze was made of gray polyvinyl chloride, with three identical arms (425 mm length × 225 mm height × 145 mm width) mounted symmetrically to an equilateral triangular center section. Each rat was placed at the end of one arm and allowed to explore the apparatus freely for 8 min. The sequence and number of all arm entries were recorded for each animal throughout the testing period. An alternation was defined as entries into all three arms on consecutive occasions. Therefore, the number of maximal alternation was the total number of arm entries minus 2, and the percentage of alternation was calculated as (actual alternations / maximal alternations) × 100. The total number of arms entered during the sessions was also determined (Yamaguchi et al, 2006). Data were eliminated in cases in which the number of total arm entries was less than 10 or when the rat escaped from the Y maze. After each trial, the Y maze was cleaned with 1% Virkon S (Pharmaxim, Helsingborg, Sweden).

[3] abbreviates: 4-week-old male Wistar rats, single s.c. treatment 2 h before test, n = 11-15.

For the sequence SEGNRWSNSTKGLFQRA [neurolide-1], in data set [1], the “increase of fEPSP slope after high-frequency stimulation (LTP)” value turned out to be 57 ± 12%. In the data set on NX-1β, the “binding to NX-1β” value is listed as “bind NX-1β”. The sociability and aggression entry in data set [2] is listed as “did not demonstrate such effects”. The “neurite outgrowth in hippocampal neurons” value with hippocampal neurons is “induce neurite outgrowth”. In the data set with male Wistar rats (setting [3]), the “alternation rate in 4-week-old rats” value amounted to 76% and the “total number of arms visited in 4-week-old rats” value is “slightly decreased the total number of arms visited”. In addition, the “working memory performance (alternation rate), peptide alone” value in the data set on male Wistar rats (adult rats 420-490 g, neurolide-1 10 mg/kg s.c. 24 and 2 h before test, n = 6-12) is reported as “did not affect performance”. Besides, the “total number of arm entries, combined treatment neurolide-1 + MK-801” value in the data set with male Wistar rats (adult rats, neurolide-1 10 mg/kg s.c. twice plus MK-801 0.1 mg/kg, n = 6-12) was “significantly increased the total number of arms visited”. Further, the “working memory (alternation rate) in MK-801-treated animals” value in the data set with male Wistar rats (adult rats, neurolide-1 10 mg/kg s.c. twice, MK-801 0.1 mg/kg 2 h before second neurolide-1 injection, n = 6-12) is given as “partially restored working memory”. Further, the “total number of arm entries, single treatment” value in the data set with male Wistar rats (adult rats, peptide alone or MK-801 alone, n = 6-12) was “did not change”.
